In PubChem BioAssay AID256 (DTP/NCI, 2004):
Values joined by “and” are separate entries in the source; they are usually repeats but may differ in a detail not shown here. Equal values may be shown once. Toxic doses and inconclusive results are not listed. Rule for the calls: active = survival T/C of 150% or more; inactive = T/C below 125% in these data.

Tested on: CD2F1 mice, L1210 leukemia ip, survival T/C
Experiment: NCI In Vivo Anticancer Drug Screen. Data for tumor model L1210 Leukemia (intraperitoneal) in CD2F1 (CDF1) mice
Settings: endpoint: mean survival time, higher = longer survival
Method in brief: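 In this screen, transplantable tumors were grown in mice given either the compound or its vehicle. Results were expressed as the treated measurement relative to the control measurement.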

[1] = dose: 25.0 mg/kg/injection, schedule: Q01DX009 (ip), vehicle: saline with Tween-80
[2] = dose: 100.0 mg/kg/injection, schedule: Q01DX001 (ip), vehicle: saline with Tween-80
[3] = dose: 100.0 mg/kg/injection, schedule: Q01DX009 (ip), vehicle: other
[4] = dose: 100.0 mg/kg/injection, schedule: Q04DX003 (ip), vehicle: saline with Tween-80
[5] = dose: 200.0 mg/kg/injection, schedule: Q01DX001 (ip), vehicle: saline with Tween-80
[6] = dose: 200.0 mg/kg/injection, schedule: Q01DX009 (ip), vehicle: other
[7] = dose: 200.0 mg/kg/injection, schedule: Q04DX003 (ip), vehicle: saline with Tween-80
[8] = dose: 400.0 mg/kg/injection, schedule: Q01DX009 (ip), vehicle: other
[9] = dose: 100.0 mg/kg/injection, schedule: Q01DX001 (ip), vehicle: saline
[10] = dose: 200.0 mg/kg/injection, schedule: Q01DX001 (ip), vehicle: saline
[11] = dose: 400.0 mg/kg/injection, schedule: Q01DX001 (ip), vehicle: saline
[12] = dose: 100.0 mg/kg/injection, schedule: Q01DX001 (ip), vehicle: Klucel (hydroxypropylcellulose) (HPC)
[13] = dose: 200.0 mg/kg/injection, schedule: Q01DX001 (ip), vehicle: Klucel (hydroxypropylcellulose) (HPC)
[14] = dose: 400.0 mg/kg/injection, schedule: Q01DX001 (ip), vehicle: Klucel (hydroxypropylcellulose) (HPC)
[15] = dose: 100.0 mg/kg/injection, schedule: Q01DX009 (ip), vehicle: saline with Tween-80
[16] = dose: 200.0 mg/kg/injection, schedule: Q01DX009 (ip), vehicle: saline with Tween-80
[17] = dose: 400.0 mg/kg/injection, schedule: Q01DX009 (ip), vehicle: saline with Tween-80
[18] = dose: 50.0 mg/kg/injection, schedule: Q01DX009 (ip), vehicle: saline with Tween-80
[19] = dose: 400.0 mg/kg/injection, schedule: Q01DX001 (ip), vehicle: saline with Tween-80
[20] = dose: 100.0 mg/kg/injection, schedule: Q01DX009 (ip), vehicle: Klucel (hydroxypropylcellulose) (HPC)
[21] = dose: 200.0 mg/kg/injection, schedule: Q01DX009 (ip), vehicle: Klucel (hydroxypropylcellulose) (HPC)
[22] = dose: 400.0 mg/kg/injection, schedule: Q04DX003 (ip), vehicle: saline with Tween-80

Measured: T/C

CCCCCCCCCCCCCCCCCCN1CCCN(CCCCCCCCCCCCCCCCCC)CC1
inactive: [1] 107 % of control and 111 % of control | dose: 25.0 mg/kg/injection, schedule: Q04DX002 (ip), vehicle: saline with Tween-80 93 % of control and 98 % of control | dose: 50.0 mg/kg/injection, schedule: Q01DX001 (ip), vehicle: saline with Tween-80 98 % of control | dose: 50.0 mg/kg/injection, schedule: Q01DX009 (ip), vehicle: other 93 % of control and 95 % of control | dose: 50.0 mg/kg/injection, schedule: Q04DX002 (ip), vehicle: saline with Tween-80 89 % of control and 97 % of control | dose: 50.0 mg/kg/injection, schedule: Q04DX003 (ip), vehicle: saline with Tween-80 104 % of control | dose: 100.0 mg/kg/injection, schedule: Q01DX001 (ip), vehicle: other 94 % of control | [2] 91 % of control | [3] 115 % of control and 101 % of control | dose: 100.0 mg/kg/injection, schedule: Q04DX002 (ip), vehicle: other 94 % of control and 96 % of control | dose: 100.0 mg/kg/injection, schedule: Q04DX003 (ip), vehicle: other 93 % of control | [4] 89 % of control | dose: 200.0 mg/kg/injection, schedule: Q01DX001 (ip), vehicle: other 98 % of control | [5] 95 % of control | [6] 102 % of control and 108 % of control | dose: 200.0 mg/kg/injection, schedule: Q04DX002 (ip), vehicle: other 96 % of control and 105 % of control | dose: 200.0 mg/kg/injection, schedule: Q04DX003 (ip), vehicle: other 96 % of control | [7] 101 % of control | dose: 400.0 mg/kg/injection, schedule: Q01DX001 (ip), vehicle: other 110 % of control | [8] 101 % of control and 104 % of control | dose: 400.0 mg/kg/injection, schedule: Q04DX002 (ip), vehicle: other 105 % of control | dose: 400.0 mg/kg/injection, schedule: Q04DX003 (ip), vehicle: other 100 % of control

O=C(COc1ccc(S[N+](=O)[O-])cc1)c1ccccc1
inactive: [9] 105 % of control | [10] 103 % of control | [11] 94 % of control

Cc1ccccc1-n1c(O)c(N=Nc2ccccc2)c(=O)n(-c2ccccc2)c1=S
inactive: dose: 50.0 mg/kg/injection, schedule: Q04DX003 (ip), vehicle: Klucel (hydroxypropylcellulose) (HPC) 93 % of control | dose: 100.0 mg/kg/injection, schedule: Q04DX003 (ip), vehicle: Klucel (hydroxypropylcellulose) (HPC) 94 % of control | dose: 200.0 mg/kg/injection, schedule: Q04DX003 (ip), vehicle: Klucel (hydroxypropylcellulose) (HPC) 104 % of control

O=S(=O)(Cc1ccccc1)CC(Br)CBr (centres undefined)
inactive: [12] 91 % of control | [13] 103 % of control | [14] 106 % of control

C=C1C(=O)OC2CC(C)C3C=CC(=O)C3CC12 (centres undefined)
inactive: dose: 0.5 mg/kg/injection, schedule: Q01DX009 (ip), vehicle: Klucel (hydroxypropylcellulose) (HPC) 106 % of control | dose: 1.0 mg/kg/injection, schedule: Q01DX009 (ip), vehicle: Klucel (hydroxypropylcellulose) (HPC) 102 % of control | dose: 18.75 mg/kg/injection, schedule: Q01DX009 (ip), vehicle: Klucel (hydroxypropylcellulose) (HPC) 105 % of control

COC(=O)c1ccc(Cl)nc1
inactive: dose: 75.0 mg/kg/injection, schedule: Q04DX003 (ip), vehicle: saline with Tween-80 106 % of control | [15] 98 % of control | dose: 150.0 mg/kg/injection, schedule: Q04DX003 (ip), vehicle: saline with Tween-80 106 % of control | [16] 97 % of control | dose: 300.0 mg/kg/injection, schedule: Q04DX003 (ip), vehicle: saline with Tween-80 100 % of control | [17] 87 % of control

CC1C2CCC(C2)C1OC(=O)c1ccccc1C(=O)O (centres undefined) (tested in a mixture with another compound)
inactive: [18] 107 % of control | [15] 102 % of control and 93 % of control | [4] 95 % of control | [16] 95 % of control | [7] 95 % of control | [17] 94 % of control

CCCCCCCCCCCCCC(=O)[O][Sn]([CH2]CCC)([CH2]CCC)[O]C(=O)CCCCCCCCCCCCC
inactive: dose: 0.78 mg/kg/injection, schedule: Q01DX009 (ip), vehicle: other 97 % of control | dose: 1.56 mg/kg/injection, schedule: Q01DX009 (ip), vehicle: other 100 % of control | dose: 3.13 mg/kg/injection, schedule: Q01DX009 (ip), vehicle: other 112 % of control

O=C(Nc1ccc(Cl)c(Cl)c1)c1cc(Cl)ccc1O
inactive: [15] 102 % of control | [16] 100 % of control | [17] 105 % of control

CCc1ccc(C2=C(O)C(=O)C(c3ccc(CC)cc3)=C(O)C2=O)cc1
inactive: dose: 1.56 mg/kg/injection, schedule: Q01DX001 (ip), vehicle: Klucel (hydroxypropylcellulose) (HPC) 97 % of control | dose: 3.12 mg/kg/injection, schedule: Q01DX009 (ip), vehicle: saline with Tween-80 97 % of control | dose: 3.13 mg/kg/injection, schedule: Q01DX001 (ip), vehicle: Klucel (hydroxypropylcellulose) (HPC) 96 % of control | dose: 6.25 mg/kg/injection, schedule: Q01DX001 (ip), vehicle: Klucel (hydroxypropylcellulose) (HPC) 96 % of control | dose: 6.25 mg/kg/injection, schedule: Q01DX009 (ip), vehicle: saline with Tween-80 89 % of control and 109 % of control | dose: 12.5 mg/kg/injection, schedule: Q01DX009 (ip), vehicle: saline with Tween-80 104 % of control | dose: 25.0 mg/kg/injection, schedule: Q01DX001 (ip), vehicle: Klucel (hydroxypropylcellulose) (HPC) 120 % of control | [1] 106 % of control and 111 % of control | [18] 119 % of control

Cc1ccc(S(=O)(=O)OCC(O)C(O)C(O)C(O)CO[N+](=O)[O-])cc1 (centres undefined)
inactive: [2] 101 % of control | [5] 101 % of control | [19] 101 % of control

COc1cc(C(=O)C(=O)c2cc(OC)c(OC)c(OC)c2)cc(OC)c1OC
inactive: [20] 101 % of control | [21] 106 % of control | dose: 400.0 mg/kg/injection, schedule: Q01DX009 (ip), vehicle: Klucel (hydroxypropylcellulose) (HPC) 113 % of control

Cc1cc(C)c(S(=O)(=O)c2ccc(F)cc2)c(C)c1
inactive: [9] 100 % of control | dose: 100.0 mg/kg/injection, schedule: Q04DX003 (ip), vehicle: saline 101 % of control | [10] 102 % of control | dose: 200.0 mg/kg/injection, schedule: Q04DX003 (ip), vehicle: saline 102 % of control | [11] 100 % of control | dose: 400.0 mg/kg/injection, schedule: Q04DX003 (ip), vehicle: saline 96 % of control

CC1(C)CC2(OC2c2ccccc2)C(C)(O)c2ccccc21 (centres undefined)
inactive: [3] 105 % of control | [6] 113 % of control | [8] 104 % of control

CC(C)NC(=O)Oc1ccccc1C(=O)OCc1ccccc1
inactive: dose: 50.0 mg/kg/injection, schedule: Q01DX009 (ip), vehicle: Klucel (hydroxypropylcellulose) (HPC) 115 % of control | [20] 108 % of control | [21] 112 % of control

Cc1ccc(NC(=O)Nc2cccc(-n3cnc4c(=O)[nH]c(N)nc43)c2)cc1S(=O)(=O)F
inactive: [2] 86 % of control | [5] 88 % of control | [19] 89 % of control

Cc1c(Cl)c(C)c(Cl)c(C)c1Cl
inactive: [4] 101 % of control | [7] 96 % of control | [22] 101 % of control

O=C(O)c1cccc(COc2ccc([N+](=O)[O-])cc2Cl)c1
inactive: [15] 101 % of control | [4] 91 % of control | [16] 93 % of control | [7] 86 % of control | [22] 97 % of control

OC(C/C(=N\Nc1ccccc1)c1ccc(Br)cc1)(C(F)(F)F)C(F)(F)F
inactive: [2] 96 % of control | [5] 95 % of control | [19] 97 % of control

O=C(O)c1ccccc1SCCO
inactive: [12] 93 % of control | [13] 102 % of control | [14] 104 % of control

CN1NC2(O)C(=O)N(C3CCCCC3)CC2C1c1ccccc1 (centres undefined)
inactive: [4] 86 % of control | [7] 93 % of control | [22] 101 % of control
